Key:
B-ALL = B-ALL challenge of mice reconstituted with Tie2-vector transduced HSPCs (Example 7); format: in vivo, mouse; conditions: FIG. 31A
Source text: We employed a transplantable model of B-acute lymphoblastic leukaemia (B-ALL) closely mimicking human Philadelphia-like B-ALL (Nucera, S. et al. (2016) Cancer Cell 29: 905-921), which readily induces a protumoral, immunosuppressive microenvironment characterised, for example, by the appearance of myeloid-derived suppressor cells, downregulation of MHC class II genes and upregulation of IL10 and PD1.
Eight weeks post transplant, upon reconstitution of the peripheral blood, animals received the B-ALL that is then followed by frequent blood collection. […]
We then combined the contemporaneous delivery of several immunostimulatory cytokines into the leukaemia microenvironment using the Tie2 vector backbone equipped with different transgene cargo. […] Vector copy number of the single vectors measured by specific quantitative PCR assays was rather low ranging from 0.1 to 0.3 in the reconstituted mice. […]
Furthermore, we evaluated the potential synergy of our gene therapy-based delivery of IFNy with other immunotherapeutic strategies including checkpoint inhibitors anti-CTLA-4 and anti-LAG-3 and the inhibitor of the IDO enzyme, 1-Methyl-Tryptophan (1-MT). […] Vector copy number of the single vectors measured by specific quantitative PCR assays was 0,72 for the Tig126/130a and 0,84 for the controls in the reconstituted mice. […]

[1] = test system: macrophages, myeloid-derived suppressor cells, CD8+ T cells; experiment: tumour microenvironment readouts at sacrifice in the B-ALL model (Example 7); format: in vivo, mouse; conditions: combined with gene therapy-based delivery of IFNγ (Tig126/130a)

For `Cn1cc(CC(N)C(=O)O)c2ccccc21` (stereo not shown) [1-MT, 1-Methyltryptophan], the disease progression (B-ALL; combined with gene therapy-based delivery of IFNγ (Tig126/130a)) was “reduction of the disease progression”, the B-ALL progression (B-ALL; monotherapy) was “no beneficial effect” and the “MHC class II expression on splenic and bone marrow macrophages” value ([1]; FIG. 31) was “significant increase”. For the same compound, the “cytotoxic CD8+ T cells in the spleen” value ([1]; FIG. 31D) was “increase”.

Source: patent US20200078408A1, “GENE THERAPY” (Ospedale San Raffaele S.r.l., priority 2017, published 2020)
